In US8906925B2, “Pyrido[4,3-B]indoles containing rigid moieties” (Medivation Technologies, Inc., priority 2008, dated 2014):
Values joined by “and” are separate entries in the source; they are usually repeats but may differ in a detail not shown here. Equal values may be shown once. Read-outs that look alike come from different tables or passages of the source.

What was measured:
histamine receptor H1 = histamine receptor H1 (Homo sapiens, UniProt P35367); experiment: Histamine H1 radioligand binding ([3H]Pyrilamine)
Outline: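 Values are percent inhibition of specific [3H]pyrilamine (1.2 nM) binding with compounds at ≤1 μM (1% DMSO vehicle); 180 min incubation at 25 °C, pH 7.4 Tris buffer, on CHO-expressed human H1 receptor; 1 μM pyrilamine defined nonspecific binding, bound ligand counted after filtration.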

[1] = target: T1, human recombinant adrenergic α1D receptor (Homo sapiens, UniProt P25100); experiment: Adrenergic α1D radioligand binding ([3H]Prozosin); conditions: read-out: Inhibition of ligand binding, Adrenergic α1D
T1 construct: expressed in transfected cells; host or cells: human embryonic kidney (HEK-293) cells
T1 sequence (P25100 1-572): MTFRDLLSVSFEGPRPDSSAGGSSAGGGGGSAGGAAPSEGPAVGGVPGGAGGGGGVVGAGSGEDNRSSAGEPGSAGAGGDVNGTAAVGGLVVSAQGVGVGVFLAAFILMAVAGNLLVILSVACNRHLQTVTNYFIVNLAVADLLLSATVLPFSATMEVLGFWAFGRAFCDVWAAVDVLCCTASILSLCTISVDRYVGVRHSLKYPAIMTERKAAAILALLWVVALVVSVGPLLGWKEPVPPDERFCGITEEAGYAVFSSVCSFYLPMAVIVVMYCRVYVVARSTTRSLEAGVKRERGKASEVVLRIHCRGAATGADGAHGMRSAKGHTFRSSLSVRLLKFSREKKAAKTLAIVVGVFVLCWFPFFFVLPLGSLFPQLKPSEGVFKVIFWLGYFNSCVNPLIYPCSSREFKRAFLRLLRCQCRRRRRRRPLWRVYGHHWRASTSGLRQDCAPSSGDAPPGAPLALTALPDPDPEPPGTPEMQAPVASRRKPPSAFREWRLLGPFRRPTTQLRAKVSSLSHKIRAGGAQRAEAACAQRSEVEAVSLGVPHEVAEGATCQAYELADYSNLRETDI
Method: Compounds of invention were incubated with 0.6 nM [^3H]Prozosin for 60 min. at 25° C. Non-specific binding was estimated in the presence of 10 μM phentolamine. Receptor proteins were filtered and washed, the filters were then counted to determine [^3H]Prozosin specifically bound. Compounds were screened at 1 μM or lower, using 1% DMSO as vehicle. Biochemical assay results are presented as the percent inhibition of specific binding in Table 9.

[2] = tested on: rat central imidazoline I2 receptor; experiment: Central imidazoline I2 radioligand binding ([3H]Idazoxan)
Method: To evaluate in radioligand binding assays the activity of compounds of the invention, rat central imidazoline I2 receptor obtained from Wistar Rat cerebral cortex (Brown, C. M. et al., Br. J. Pharmacol. 99:803, 1990) in a modified Tris-HCl buffer (50 mM Tris-HCl buffer, pH 7.4, 0.5 mM EDTA) was used. Compounds of the invention were incubated with 2 nM [^3H]Idazoxan for 30 min. at 25° C. Non-specific binding was estimated in the presence of 1 μM Idazoxan. Receptor proteins were filtered and washed, the filters were then counted to determine [^3H]Idazoxan specifically bound. Compounds were screened at 1 μM or lower, using 1% DMSO as vehicle. Compounds of the invention were tested in this biochemical assay and percent inhibition of specific binding was determined.

[3] = target: T2, human recombinant serotonin (5-Hydroxytryptamine) 5-HT2C receptor (Homo sapiens, UniProt P28335); experiment: Serotonin 5-HT2C radioligand binding ([3H]Mesulergine); conditions: read-out: Inhibition of ligand binding, Serotonin 5-HT2C (percent inhibition of specific binding); for inhibition at 0.1 µM: compound at 0.1 μM; for inhibition at 1 µM: compound at 1 μM
T2 construct: expressed in transfected cells; host or cells: Chinese hamster ovary (CHO-K1) cells
T2 sequence (P28335 33-458): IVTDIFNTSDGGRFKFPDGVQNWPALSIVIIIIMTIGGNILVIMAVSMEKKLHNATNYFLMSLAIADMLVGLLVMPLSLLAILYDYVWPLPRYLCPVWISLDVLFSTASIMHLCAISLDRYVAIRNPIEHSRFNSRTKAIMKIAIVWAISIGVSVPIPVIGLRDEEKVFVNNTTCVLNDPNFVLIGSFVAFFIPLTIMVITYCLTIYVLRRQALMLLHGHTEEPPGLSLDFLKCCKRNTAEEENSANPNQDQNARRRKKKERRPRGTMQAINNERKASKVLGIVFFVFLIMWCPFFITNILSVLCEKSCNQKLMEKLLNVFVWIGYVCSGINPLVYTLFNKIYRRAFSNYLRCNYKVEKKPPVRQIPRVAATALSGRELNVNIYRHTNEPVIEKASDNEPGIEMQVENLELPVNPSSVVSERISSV
Outline: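 Compounds tested at 1 μM or lower (1% DMSO vehicle) for displacement of 1 nM [3H]Mesulergine over 60 min at 25° C. Specific binding determined by filtration counting, with 1 μM Mianserin defining non-specific binding; values are percent inhibition.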

[4] = target: T3, human recombinant histamine H2 receptor (Homo sapiens, UniProt P25021); experiment: Histamine H2 radioligand binding ([125I]Aminopotentidine)
T3 construct: expressed in transfected cells; host or cells: Chinese hamster ovary (CHO) K1 cells
Outline: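 CHO-K1 cells expressing human recombinant H2 receptor, 50 mM phosphate buffer pH 7.4; compounds incubated with 0.1 nM [125I]aminopotentidine for 120 min at 25 °C. Nonspecific binding defined with 3 μM tiotidine; specifically bound radioligand counted after filtration and washing.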

[5] = percent inhibition of specific binding, compound at 1 μM
[6] = read-out: Histamine Binding (1 μM) H2, percent inhibition of specific binding, 1 μM

T3 sequence (P25021 whole entry): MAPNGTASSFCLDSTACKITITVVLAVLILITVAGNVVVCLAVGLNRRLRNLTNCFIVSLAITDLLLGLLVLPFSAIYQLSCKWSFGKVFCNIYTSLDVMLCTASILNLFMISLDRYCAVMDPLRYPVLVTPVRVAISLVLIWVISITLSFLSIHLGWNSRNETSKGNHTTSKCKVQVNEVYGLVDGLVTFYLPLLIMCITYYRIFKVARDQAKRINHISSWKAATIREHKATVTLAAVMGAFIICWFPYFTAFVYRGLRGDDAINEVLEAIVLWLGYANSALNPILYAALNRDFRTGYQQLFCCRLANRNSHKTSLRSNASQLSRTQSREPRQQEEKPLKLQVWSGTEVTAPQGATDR
Chain of histamine receptor H1 (P35367 whole entry): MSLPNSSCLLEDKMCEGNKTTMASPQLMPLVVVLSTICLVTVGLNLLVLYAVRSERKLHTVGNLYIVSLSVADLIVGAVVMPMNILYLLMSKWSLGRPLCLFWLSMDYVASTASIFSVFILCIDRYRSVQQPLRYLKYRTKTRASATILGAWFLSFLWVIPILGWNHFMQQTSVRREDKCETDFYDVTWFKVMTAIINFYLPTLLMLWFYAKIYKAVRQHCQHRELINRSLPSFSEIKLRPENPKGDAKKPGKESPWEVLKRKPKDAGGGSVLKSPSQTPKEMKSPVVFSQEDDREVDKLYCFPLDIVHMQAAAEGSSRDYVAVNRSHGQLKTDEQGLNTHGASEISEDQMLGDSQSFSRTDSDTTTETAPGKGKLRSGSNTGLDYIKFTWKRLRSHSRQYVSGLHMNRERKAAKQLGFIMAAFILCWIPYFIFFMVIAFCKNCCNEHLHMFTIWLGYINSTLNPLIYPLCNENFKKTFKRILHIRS

| SMILES | Histamine Binding (1 μM) H1, percent inhibition of specific binding (histamine receptor H1; 1 μM) | inhibition at 1 µM [1, 5] [%] | Imidazoline I2 Central (1 μM), percent inhibition of specific binding [2] [%] | inhibition at 0.1 µM [3] [%] | inhibition at 1 µM [3] [%] | inhibition at 1 µM [4, 6] [%] | inhibition at 1 µM (histamine receptor H1; read-out: Histamine Binding (1 μM) H1, percent inhibition of specific binding, 1 μM) [%] | inhibition at 1 µM (histamine receptor H1; read-out: Histamine Binding (1 μM) H1, percent inhibition of specific binding) [%] | inhibition at 1 µM [1] [%] | inhibition at 1 µM ([4]; read-out: Histamine Binding (1 μM) H2, percent inhibition of specific binding) [%] |
| --- | --- | --- | --- | --- | --- | --- | --- | --- | --- | --- |
| C/C(=C\n1c2c(c3cc(Cl)ccc31)CN(C)CC2)c1ccc(F)cc1 [Compound 83, (E)-8-chloro-5-(2-(4-fluorophenyl)prop-1-enyl)-2,3,4,5-tetrahydro-2-methyl-1H-pyrido[4,3-b]indole] | 60% and 79% and 84% | 96 | 85 | 100 | 98 | 99 |  |  |  |  |
| CCN1CCc2c(c3cc(C)ccc3n2CC(O)c2ccc(C)cc2)C1 (racemic) [Compound 51, racemic-2-(2-ethyl-1,2,3,4-tetrahydro-8-methylpyrido[4,3-b]indol-5-yl)-1-p-tolylethanol] |  | 89 | 79 | 43 | 84 | 59 | 100 |  |  |  |
| Cc1ccc2[nH]c3c(c2c1)CN(C)CC3 [Compound 3, 2,8-Dimethyl-2,3,4,5-tetrahydro-1H-pyrido[4,3-b]indole] |  |  | 58 |  | 96 |  |  | 30 | 42 | 6 |
